From patent US10155742B2, “Halofuginol derivatives and their use in cosmetic and pharmaceutical compositions” (President and Fellows of Harvard College, priority 2012, dated 2018)

How the values were obtained:
[1] = system: prolyl-tRNA charging in the RRL system; experiment: tRNA charging in RRL (14C Pro or 35S Met incorporation into tRNA); conditions: FIG. 2D
[2] = system: primary human prostate stromal (hPrSc) cells, col1a1; experiment: Type I collagen (col1a1) mRNA in primary human prostate stromal cells; type: cell-based; conditions: treated twice for 48 hours, FIG. 27
Procedure: (§1) Primary human prostate stromal (hPrSc) cells were left in low-serum media (0.2%) for 24 hours, and treated consecutively twice for 48 hours, halofuginone (HF) or halofuginol (HFol) at the concentrations indicated. Relative mRNA levels of the myofibroblastic markeralpha 1 collagen type 1 (col1a1) was measured by quantitative real-time PCR using glyceraldehyde-3-phosphate dehydrogenase (GAPDH) as internal control.

[3] = target: T1, prolyl tRNA synthetase domain of human EPRS (ProRS) (Homo sapiens, UniProt P07814); experiment: biochemical
T1 sequence (P07814 998-1512 limits assumed): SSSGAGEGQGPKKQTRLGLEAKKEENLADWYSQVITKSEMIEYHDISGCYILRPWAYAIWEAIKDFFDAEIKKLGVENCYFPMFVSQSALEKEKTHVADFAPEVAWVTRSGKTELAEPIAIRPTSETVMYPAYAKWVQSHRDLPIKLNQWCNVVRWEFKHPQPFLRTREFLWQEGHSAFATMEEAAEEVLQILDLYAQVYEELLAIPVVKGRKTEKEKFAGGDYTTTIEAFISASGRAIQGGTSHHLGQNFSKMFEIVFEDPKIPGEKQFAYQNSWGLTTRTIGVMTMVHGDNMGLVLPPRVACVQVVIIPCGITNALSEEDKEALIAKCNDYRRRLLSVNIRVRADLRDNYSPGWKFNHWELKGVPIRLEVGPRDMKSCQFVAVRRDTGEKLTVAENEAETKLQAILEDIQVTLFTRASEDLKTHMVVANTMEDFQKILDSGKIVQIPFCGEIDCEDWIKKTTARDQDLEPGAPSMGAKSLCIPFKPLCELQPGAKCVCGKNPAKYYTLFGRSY
Procedure: (§2) Activity of the Prolyl tRNA synthetase domain of EPRS (ProRS) was measured as ^3H Pro incorporation into the charged tRNA pool. […] Purified enzyme was visualized as a single band by Laemmli gel electrophoresis/Coomassie staining.
(§3) Purified enzyme was visualized as a single band by Laemmli gel electrophoresis/Coomassie staining. […] In preliminary experiments, the assay was established to be linear over the time (6 min) and conditions used (30 degrees, 2 mM ATP, 1 μg/μl total tRNA purified from rabbit liver).
(§4) For the rapid, quantitative isolation of aminoacylated tRNA^pro from synthetase reaction mixtures, reactions were stopped with 100 μl of ice cold 20 mM MOPS pH6.2, 200 mM NaCl, 10 mM EDTA, 30% Glycerol and placed on ice. Samples were added to 15 μl of packed Mono Q HP beads (GE Healthcare) equilibrated in the same buffer. Samples were incubated with beads on ice for 10 min, beads were pelleted by 5 sec centrifugation in a tabletop microfuge and washed 3× 1 ml of wash buffer (20 mM MOPS pH6.2, 50 mM NaCl), and recovered pellets counted in a liquid scintillation counter. Background binding of ^3H Pro to beads (using reaction mix with either no enzyme added or no tRNA added) was negligible (20-40 cpm).

[4] = system: primary human prostate stromal (hPrSc) cells, s100a4; experiment: S100A4 mRNA in primary human prostate stromal cells; type: cell-based; conditions: with or without TGF 10 ng/ml, FIG. 28
Procedure: as §1, with “48 hours with or without tumor-growth factor beta (TGF; 10 ng/ml),” for “48 hours,”, “the fibrosis/tissue invasion marker s100a4” for “the myofibroblastic markeralpha 1 collagen type 1 (col1a1)”

[5] = system: translation in rabbit reticulocyte lysate (RRL); experiment: In vitro translation assay in rabbit reticulocyte lysate (RRL)
dermal ECM deposition = conditions: intraperitoneally, added to food, or applied locally; Pines et al. 2003; cited from earlier work
[6] = target: T1, prolyl tRNA synthetase domain of human EPRS (ProRS); conditions: 3H Pro incorporation into tRNA
Procedure: as §2, §3, §4

mTORC1 signaling in MEFs = experiment: mTORC1 pathway phosphorylation by Western blot; type: cell-based, mouse; conditions: 100 nM HF, FIG. 16
Procedure: MEFs growing in DME/10% FCS were treated with 100 nM HF or 0.5 μM rapamycin and analyzed by Western blot for phosphorylation of component of the mTor signaling pathway.

[7] = target: T2, ProRS (amino acids 998-1513 of human EPRS) (Homo sapiens, UniProt P07814); experiment: [3H]-HFol binding to immobilized ProRS; conditions: FIG. 3A
T2 construct: Purified 6-his tagged ProRS (amino acids 998-1513 of human EPRS) was immobilized on N-NTA beads; made in house; host or cells: E. coli BL21(DE3), plasmid pKS509
T2 sequence (P07814 998-1512 limits assumed): T1 sequence (P07814 998-1512 limits assumed)
Procedure: B) [^3H]-HFol binding was assayed as described above in the presence of indicated concentrations of proline. […] IMR90 lung fibroblasts were treated with a siRNAs directed against EPRS (Dharmacon) or a control siRNA mixture for 48 hours, and then treated with HF for 2 hours (pGCN2) and examined for EPRS protein levels, GCN2 total protein and phospho-GCN2 by Western blot. D) EPRS depleted IMR90 cells were compared to control cells with respect to HF induction of the AAR marker CHOP by Q-PCR. Equal concentrations of total cellular protein were loaded in each Western blot lane. CHOP expression was standardized to expression of phosphoglycerate kinase 1 (PGK1) and glyceraldehyde-3-phosphate-dehydrogenase (GAPDH). Data shown are representative of three separate experiments.
Prolyl sulfamoyl adenosine (ProSAd) or alanyl sulfamoyl adenosine (AlaSAd), analogs of the corresponding aminoacyl adenylate, were coincubated with [^3H]-HFol as in FIG. 2. […] Binding of [^3H]-HFol was assayed as in FIG. 3, except that the nucleotide type and concentration was varied as indicated.
To examine HF binding to ProRS, ^3H HFol was synthesized by American Radiochemicals (St. Louis) by reduction of MAZ1310 (3) at the ketone with NaB^3H4, followed by removal of the Boc protecting group with 10% trifluoroacetic acid in dichloromethane, and HPLC purification of the ^3H HFol. 100 nM ^3H HFol was incubated with ProRS immobilized on Ni-NTA beads (Pierce) in 50 mM Tris pH 7.5, 5 mM MgCl2, 20 mM Imidazole, 1 mM DTT, 10% glycerol, and nucleotides, proline, or HF derivatives at room temperature for 10 minutes as indicated. After incubation, beads were washed twice with ice-cold wash buffer (50 mM Tris 7.5; 20 mM Imidazole; 1 mM DTT, 20% glycerol). ^3H HFol bound after washing was measured by liquid scintillation counting. Ni-NTA beads incubated with E. coli extracts lacking tagged ProRS were used as a background reference in all experiments.

[8] = inhibitor 1 μM, anti-myc Western blot, FIG. 2C

O=C(C[C@H]1NCCC[C@@H]1O)Cn1cnc2cc(Br)c(Cl)cc2c1=O (racemic) [HF, 7-bromo-6-chloro-3-[3-(3-hydroxy-2-piperidinyl)-2-oxopropyl]-4(3H)-quinazolinone]
incorporation of 14C-Pro into tRNA [1]: inhibited | Type 1 collagen expression in fibroblasts in culture [2]: inhibit | Ki [3]: 18.3 nM | expression of the activated fibroblast marker S100A4 [4]: inhibit | translation of Nopropep (proline-free polypeptide) [5, 8]: no effect | translation of Propep (proline dipeptide containing polypeptide) [5, 8]: prevent translation | inhibition of translation of luciferase RNA in RRL ([5]; luminescence assay, FIG. 2A/2B): inhibited | excess dermal ECM deposition (dermal ECM deposition): reduces | inhibition of ProRS activity [6]: inhibits | inhibition of mTORC1 signaling / downstream targets (mTORC1 signaling in MEFs): without concomitant inhibition | inhibition of mTORC1 signaling / downstream targets (mTORC1 signaling in MEFs; listed as halofuginone): does not directly inhibit | competition of [3H]-HFol binding to ProRS [7]: competed
